From patent US7928368B2, “Micropillar array electrospray chip” (Licentia Oy, priority 2007, dated 2011)
Where a name gives a salt, the structure may show the parent alone.

Tested on: rat hepatocytes
Assay: metabolism sample: incubation of sibutramine with rat hepatocytes, metabolites detected by μPESI/MS
Assay type: in vitro ADME
Conditions: R-enantiomer of sibutramine hydrochloride incubated with rat hepatocytes for 8 h, 2.5-μl injection, Q-TOF Micro
Experimental: For bioanalysis experiments verapamil, angiotensin I, angiotensin II, substance P, and horse heart myoglobin were used as test compounds and 2.5 μl of each sample was pipetted to the sample introduction spot. For the measurements of linearity and sensitivity verapamil was dissolved into acetonitrile:water (95:5) with 0.1% formic acid at concentrations of 10 pM to 10 μM. The metabolism sample was prepared by incubating R-enantiomer of sibutramine hydrochloride (purity>99%) with rat hepatocytes for 8 h. After sample preparation the sample was evaporated dryness and the residue was diluted to 50 μl of methanol. 10 μl of sample was dissolved into 500 μl acetonitrile:water (95:5) with 0.1% formic acid.
The peptides (angiotensin I, angiotensin II, and substance P) and the protein (horse heart myoglobin) were diluted into 80% aqueous methanol containing 1% acetic acid (two separate samples). The concentrations were 5 μM for the peptides and 300 nM for horse heart myoglobin. Full-scan mass spectra ranging from m/z 400 to 750 were measured from the peptide mixture and m/z 700 to 950 from the protein in the positive mode. Sibutramine metabolism sample was measured with Q-TOF Micro. A mass spectrum of solvent blank sample was subtracted from that of metabolism sample. […]

Compound: CC(C)CC(N(C)C)C1(c2ccc(Cl)cc2)CCC1 (stereo not shown) [sibutramine, sibutramine hydrochloride]
- sibutramine metabolites found in metabolism sample: small amounts of sibutramine glucuronides were found
